Experimental data published in patent publication US6362207B1, “Methods of treating viral infections with benzimidazoles” (priority 1995, dated 2002).
“And” between values parts separate entries of the source, which are not always exact repeats. Identical values can stand only once.

Experiments:
[1] = tested on: MCF7 (breast cancer) cells; test: Apoptosis study (TdT assay) and cell growth; format: cell-based, human
Method: (§1) Summary of test results: The extent of apoptosis is measured in human tumor cell lines after treatment for 1, 2, 3 and 4 days with carbendazim. At each of these time points, the cells are harvested and assayed using the terminal deoxynucleotidyl transferase (TdT) assays. Both microscopy and flow cytometry were used for the TdT assay.
(§2) In MCF7, HT29, B16 and SK-MES cell lines, there was a concentration dependent effect on cell growth. […] After completion of the studies on the MCF7 and HT29 cell lines, it was evident that the 0.1 μg/ml concentration had little effect on either apoptosis or cell growth. Therefore subsequent assays were with 5 μg/ml instead of 0.1 μg/ml.
However, at 10 μg/ml the increase in apoptosis was evident at days 3 and 4. The increase in apoptosis was low, less than 10% at the high concentration.

[2] = tested on: B16 murine melanoma cell line; test: Apoptosis study (TdT assay) and cell growth; format: cell-based
Method: as §1, §2
The concentration effects at days 1-4 were much more evident after normalization of the apoptosis for the growth rates.

Prostate cancer model = test: Prostate cancer model, tumor weight; format: in vivo, mice; settings: c1-c6 = day 22, 26, 29, 33, 36, 39
Rhabdomysarcoma = Rhabdomysarcoma model, tumor weight; format: in vivo; settings: 3000 (mg/kg) group, once weekly p.o.
Text: (§3) The dose response effect of carbendazim in mice infected with various cancer types was studied in standard screening tests.
(§4) The results of these studies conducted to study the dosage response of carbendazim on various cancer types are summarized below. […] Efficacy of carbendazim has been shown in the following cancers:
In the Rhabdomysarcoma model, a childhood cancer, at day 29 carbendazim at doses of 3000, 4000 and 5000 (mg/kg given once weekly, p.o.) is quite effective against this tumor with no toxicity in the 3000 (mg/kg) group. Topotecan (i.p., qd×5) is quite active against this model.

MV522 = test: Lung cancer model MV522 after Taxol, tumor weight; format: in vivo, mice
Method: as §3, §4
At doses of 2000, 3000, 4000 and 5000 (mg/kg given twice weekly, p.o.) tumor growth was suppressed in a dose response and the tumor was shrunk in the 5000 mg/kg group. Day 1 is the start of the treatment with carbendazim.

[3] = tested on: MX1 breast cancer tumors implanted subcutaneously; test: Tumor growth reduction in mice models (Table 5), breast; format: in vivo; settings: MXI-breast
lung = format: in vivo; settings: A549-lung, 500 mg/kg
colon = test: Tumor growth reduction in mice models (Tables 5 and 6), colon; format: in vivo; settings: HT29-colon, 2500 mg/kg
Oral LD50 = settings: mouse, in vivo, mice
[4] = tested on: HIV-1 in U1 cells (promonocytic, from U937); test: Additional chronic HIV studies, monocytes; format: cell-based; settings: concentration not given
Method: (§5) Chronic HIV-1 infected cells U1 were derived from an acute HIV-1 infection of the promonocytic cell line, U937. The chronic HIV-1 infected cells, ACH-2 were derived from an acute HIV-1 infection of the T cell line, A3.01.
(§6) These cells were cultured in medium and the phorbol ester, PMA. PMA causes the cells (both U1 and ACH-2) to be activated and not divide but it also causes the U-1 cells to differentiate. […] Cell viability was measured when these cell lines were treated with the test compound.
(§7) Both cell lines constituitively produce a small amount of HIV-1. ACH-2 cell lines tend to produce more HIV-1 than U1 cells as shown by p24 ELISA. When either cell line is cultured in the presence of PMA there is an increase in the quantity of HIV-1 produced as measured by the p24 antigen ELISA.
(§8) In addition, the number of […] positive HIV mRNA expressing cells per microscopic field is measured. Comparisons can be made from these numbers since the same number of cells were adhered to the glass slides for each drug concentration 10×10^6 cells/ml).
(§9) These cells were treated with test samples. […] The positive control was interferon which suppressed HIV monocytes replication by 80%.

[5] = tested on: HIV-1 in ACH-2 cells (T cell line A3.01); test: Additional chronic HIV studies, T cells; format: cell-based; settings: concentration not given
Method: as §5, §6, §7, §8, §9

influenza = test: In vivo model for influenza; set-up: species or system mice; settings: mouse, in vivo
Method: The positive control was amantadine (75 mg/kg) with 100% of the mice surviving for 21 days. 2-(Methoxycarbonylamino)benzimidazole was not active in the same test.

rhinovirus = test: In vitro rhinovirus model; format: cell-based
[6] = tested on: Human Tumor Colony Forming Units; test: In Vitro Human Tumor Colony Forming Units Test; settings: for tumors that had ≧50% survival / tumors tested, total line: all tumor types

SMILES: COC(=O)Nc1nc2ccccc2[nH]1 [carbendazim, 2-methoxycarbonylamino-benzimidazole]
- increase in apoptosis ([1]; 10 μg/ml (high concentration), days 3 and 4): below 10%
- cell growth ([1]; below 10 μg/ml): not significantly affected
- growth rates ([2]; all concentrations): affected the growth rates
- apoptosis ([2]; days 14 by TdT microscopy and days 2-4 by flow cytometry): Some concentration dependent effects
- tumor weight (Prostate cancer model; 4000 mg/kg p.o. twice a week): 330.5 mg and 347.9 mg and 346.6 mg and 421.1 mg and 464.9 mg and 517 mg
- tumor weight (Prostate cancer model; 6000 mg/kg p.o. twice a week): 331.5 mg and 371.7 mg and 421.7 mg and 517.2 mg and 529.9 mg and 595.2 mg
- toxicity (Rhabdomysarcoma): no toxicity
- tumor weight (MV522; 2000 mg/kg twice weekly p.o., c1-c3 = day 59, 63, 66, 2000 mg/kg, day 59): 214.9 mg
- tumor weight (MV522; 2000 mg/kg twice weekly p.o., c1-c3 = day 59, 63, 66, 2000 mg/kg, day 63): 193.7 mg
- tumor weight (MV522; 2000 mg/kg twice weekly p.o., c1-c3 = day 59, 63, 66, 2000 mg/kg, day 66): 188.9 mg
- tumor weight (MV522; 3000 mg/kg twice weekly p.o., c1-c3 = day 59, 63, 66, 3000 mg/kg, day 59): 75.4 mg
- tumor weight (MV522; 3000 mg/kg twice weekly p.o., c1-c3 = day 59, 63, 66, 3000 mg/kg, day 63): 77 mg
- tumor weight (MV522; 3000 mg/kg twice weekly p.o., c1-c3 = day 59, 63, 66, 3000 mg/kg, day 66): 94.5 mg
- Tumor Growth Decrease (%) ([3]; 500 mg/kg): 42%
- Tumor Growth Decrease (%) ([3]; 2500 mg/kg): 37%
- Tumor Growth Decrease (%) (lung): 57%
- Tumor Growth Decrease (%) (colon): 54%
- LD50 (Oral LD50): 11000 mg/kg
- suppression of replication in the HIV monocytes [4]: 9%
- increase of T-cell HIV replication [5]: 44%
- activity (influenza): not active
- therapeutic index (TI), ratio of toxic dose to efficacious dose (rhinovirus): 1-3
- positive results / tumors tested ([6]; 1 Hour Exposure, 0.5 μg/ml): 0/1
- positive results / tumors tested ([6]; 1 Hour Exposure, 5.0 μg/ml): 0/1
- positive results / tumors tested ([6]; 1 Hour Exposure, 50.0 μg/ml): 0/1
- tumors that had ≧50% survival / tumors tested ([6]; Brain, 2nd '1 Hour Exposure' group, c4-c7 = 0.5, 5.0, 10, 50 μg/ml): 0/2 and 2/2
- tumors that had ≧50% survival / tumors tested ([6]; Breast, 1 Hour Exposure, c1-c3 = 0.5, 5.0, 50 μg/ml): 0/1
- tumors that had ≧50% survival / tumors tested ([6]; Breast, 2nd '1 Hour Exposure' group, c4-c7 = 0.5, 5.0, 10, 50 μg/ml): 0/3 and 0/4 and 0/1 and 2/3
- tumors that had ≧50% survival / tumors tested ([6]; Cervix, 2nd '1 Hour Exposure' group, c4-c7 = 0.5, 5.0, 10, 50 μg/ml): 0/1 and 1/1
- tumors that had ≧50% survival / tumors tested ([6]; Colon, 1 Hour Exposure, c1-c3 = 0.5, 5.0, 50 μg/ml): 0/1
- tumors that had ≧50% survival / tumors tested ([6]; Colon, 2nd '1 Hour Exposure' group, c4-c7 = 0.5, 5.0, 10, 50 μg/ml): 0/5 and 1/5 and 2/5
- positive results / tumors tested ([6]; Continuous Exposure, 0.5 μg/ml): 0/14
- positive results / tumors tested ([6]; Continuous Exposure, 5.0 μg/ml): 3/14
- positive results / tumors tested ([6]; Continuous Exposure, 50.0 μg/ml): 5/14
- tumors that had ≧50% survival / tumors tested ([6]; Head & Neck, 1 Hour Exposure, c1-c3 = 0.5, 5.0, 50 μg/ml): 0/1
- tumors that had ≧50% survival / tumors tested ([6]; Head & Neck, 2nd '1 Hour Exposure' group, c4-c7 = 0.5, 5.0, 10, 50 μg/ml): 0/1 and 1/1
- tumors that had ≧50% survival / tumors tested ([6]; Kidney, 1 Hour Exposure, c1-c3 = 0.5, 5.0, 50 μg/ml): 0/1
- tumors that had ≧50% survival / tumors tested ([6]; Kidney, 2nd '1 Hour Exposure' group, c4-c7 = 0.5, 5.0, 10, 50 μg/ml): 0/2 and 1/2
- tumors that had ≧50% survival / tumors tested ([6]; Lung, non-small cell, 1 Hour Exposure, c1-c3 = 0.5, 5.0, 50 μg/ml): 0/1
- tumors that had ≧50% survival / tumors tested ([6]; Lung, non-small cell, 2nd '1 Hour Exposure' group, c4-c7 = 0.5, 5.0, 10, 50 μg/ml): 0/6 and 2/6 and 0/1 and 2/5
- tumors that had ≧50% survival / tumors tested ([6]; Melanoma, 1 Hour Exposure, c1-c3 = 0.5, 5.0, 50 μg/ml): 0/2 and 1/2
- tumors that had ≧50% survival / tumors tested ([6]; Melanoma, 2nd '1 Hour Exposure' group, c4-c7 = 0.5, 5.0, 10, 50 μg/ml): 0/3 and 1/3 and 2/3
- tumors that had ≧50% survival / tumors tested ([6]; Mesothelioma, 2nd '1 Hour Exposure' group, c4-c7 = 0.5, 5.0, 10, 50 μg/ml): 0/1
- tumors that had ≧50% survival / tumors tested ([6]; Ovary, 1 Hour Exposure, c1-c3 = 0.5, 5.0, 50 μg/ml): 0/3
- tumors that had ≧50% survival / tumors tested ([6]; Ovary, 2nd '1 Hour Exposure' group, c4-c7 = 0.5, 5.0, 10, 50 μg/ml): 0/1 and 2/13 and 10/13
- tumors that had ≧50% survival / tumors tested ([6]; Sarcoma, 1 Hour Exposure, c1-c3 = 0.5, 5.0, 50 μg/ml): 0/1 and 1/1
- tumors that had ≧50% survival / tumors tested ([6]; Sarcoma, 2nd '1 Hour Exposure' group, c4-c7 = 0.5, 5.0, 10, 50 μg/ml): 0/1 and 1/1
- tumors that had ≧50% survival / tumors tested ([6]; Stomach, 2nd '1 Hour Exposure' group, c4-c7 = 0.5, 5.0, 10, 50 μg/ml): 0/1 and 1/1
- tumors that had ≧50% survival / tumors tested ([6]; Unknown Primary, 2nd '1 Hour Exposure' group, c4-c7 = 0.5, 5.0, 10, 50 μg/ml): 0/1
- tumors that had ≧50% survival / tumors tested ([6]; Uterus, 2nd '1 Hour Exposure' group, c4-c7 = 0.5, 5.0, 10, 50 μg/ml): 0/3 and 2/3
- tumors that had ≧50% survival / tumors tested, total line ([6]; 1 Hour Exposure, c1-c3 = 0.5, 5.0, 50 μg/ml): 0/11 and 2/11
- tumors that had ≧50% survival / tumors tested, total line ([6]; 2nd '1 Hour Exposure' group, c4-c7 = 0.5, 5.0, 10, 50 μg/ml): 0/4 and 6/44 and 0/3 and 27/41
